Values quoted from earlier work, collected in patent US20190000795A1, “Methods of using cannabinoids and/or molecular similars for modulating, waking-up and/or disabling cellular functions involved in causing disease -- reinvigorating metabolism with anandamide, 2-arachidonoylglycerol and similarly acting compounds” (priority 2017, published 2019).
Like-named read-outs stand apart in the source and are kept apart here.

Legend:
Complex 1 = settings: for Complex 1 activity, rapid and transient increase: below threshold around 10 μM
mitochondrion [1] = test system: mitochondrion
mitochondrion [2] = test system: mitochondrion; remark: listed apart in the source
GPR55 = GPR55 (Homo sapiens, UniProt Q9Y2T6)
Chain of GPR55 (Q9Y2T6 whole entry, species assumed): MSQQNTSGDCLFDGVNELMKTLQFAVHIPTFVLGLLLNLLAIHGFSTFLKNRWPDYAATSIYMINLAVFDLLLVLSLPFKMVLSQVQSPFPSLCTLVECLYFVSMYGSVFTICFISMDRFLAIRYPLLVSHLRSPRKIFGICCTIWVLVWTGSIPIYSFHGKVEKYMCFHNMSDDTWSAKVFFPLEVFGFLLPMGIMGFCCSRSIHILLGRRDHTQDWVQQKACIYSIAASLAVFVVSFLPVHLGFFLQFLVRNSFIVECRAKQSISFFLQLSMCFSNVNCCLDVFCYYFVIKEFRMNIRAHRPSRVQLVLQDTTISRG

Row | Structure (SMILES) | O2 consumption at the mitochondrion (mitochondrion [2]) | GPR55 Ca2+ flux activation (GPR55) | other results
1 | CCCCC/C=C\C/C=C\C/C=C\C/C=C\CCCC(=O)NCCO [AEA, N-arachidonoylethanolamine] | decrease | Ca^2+ flux activation | concentration range of steady logarithmic decline of Complex 1 activity (Complex 1): 5-200 μM; effect on H2O2 production (mitochondrion [1]): no effect
2 | CCCn1c(C)c(C(=O)c2cccc3ccccc23)c2ccccc21 [JWH015] |  | Ca^2+ flux activation | 
3 | CCCCCCCCCCCCCCCC(=O)NCCO [PEA, palmitoylethanolamide] |  | not | 
4 | CCCCCc1cc(O)c2c(c1)OC(C)(C)[C@@H]1CCC(C)=C[C@@H]21 [THC, delta-9 tetrahydrocannabinol] | decrease | Ca^2+ flux activation | threshold concentration of sudden decrease of Complex 1 activity (Complex 1): around 10 μM; Complex 1 activity, rapid and transient increase (Complex 1): 50%; Complex 2/3 inhibition, course of effect (Complex 2/3): more steady logarithmic concentration dependent effect; effect on H2O2 production (mitochondrion [1]; between 2 and 10 μM): increase
5 | CCCCC/C=C\C/C=C\C/C=C\C/C=C\CCCC(=O)OCCN [O-AEA, O-arachidonoyl ethanolamine] |  | not | body temperature (mice): lowers body temperature
6 | CCCCC/C=C\C/C=C\C/C=C\C/C=C\CCCC(=O)OC(CO)CO [2AG, 2-arachidonoylglycerol] |  | not | 
7 | CCCCCCC(C)(C)c1cc(O)c2c(c1)OC(C)(C)[C@@H]1CC=C(CO)C[C@@H]21 [HU210] | decrease |  | threshold concentration of sudden decrease of Complex 1 activity (Complex 1): around 10 μM; Complex 1 activity, rapid and transient increase (Complex 1): 25%; effect on H2O2 production (mitochondrion [1]; between 2 and 10 μM): increase
8 | CCCCC/C=C\C/C=C\C/C=C\C/C=C\CCCC(=O)N[C@H](C)CO [methanandamide] |  | Ca^2+ flux activation | 
9 | CCCCCCC(C)(C)c1ccc([C@@H]2C[C@H](O)CC[C@H]2CCCO)c(O)c1 [CP 55 940] |  | not | 
